Laboratory results taken from patent US12599136B2, “Substituted isophthalic acid diamides and their use as herbicides” (Bayer Aktiengesellschaft, priority 2020, dated 2026).

Key:
Assay type in all cases: in vivo
Viola tricolor [1] = experiment: Post-emergence herbicidal action against VIOTR
Method in brief: (§1)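 Spray, one-leaf stage: WP or EC compound in water, 600–800 l/ha, 0.2% wetting agent. Plants held about 3 weeks in the greenhouse, then visually rated in percent of kill compared with untreated controls.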

Pharbitis purpurea [2] = experiment: Pre-emergence herbicidal action against PHBPU; conditions: 80 g/ha; visual score after 3 weeks vs untreated controls
Text: Seeds of monocotyledonous and dicotyledonous weed plants and crop plants are laid out in sandy loam soil in wood-fiber pots and covered with soil. The compounds of the invention, formulated in the form of wettable powders (WP) or as emulsion concentrates (EC), are then applied to the surface of the covering soil in the form of an aqueous suspension or emulsion at a water application rate equivalent to 600 to 800 l/ha, with addition of 0.2% wetting agent. After the treatment, the pots are placed in a greenhouse and kept under good growth conditions for the trial plants. The damage to the test plants is scored visually after a test period of 3 weeks by comparison with untreated controls (herbicidal activity in percent (%): 100% activity=the plants have died, 0% activity=like control plants). […] The tables below illustrate, in an illustrative manner, the post-emergence herbicidal action of the compounds of the invention, the herbicidal activity being stated in percent.

Viola tricolor [3] = experiment: Pre-emergence herbicidal action against VIOTR
Method in brief: (§2)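 Pre-emergence soil-surface spray of formulated compound (WP or EC; 600 to 800 l/ha; 0.2% wetting agent) over seeds sown in sandy loam. After 3 weeks under greenhouse conditions, damage is estimated visually in percent against untreated plants.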

Setaria viridis [4] = experiment: Pre-emergence herbicidal action against SETVI; conditions: 80 g/ha
Method in brief: as §2

Alopecurus myosuroides [5] = experiment: Pre-emergence herbicidal action against ALOMY; conditions: visual score after 3 weeks vs untreated controls
Method in brief: as §2

Veronica persica [6] = experiment: Pre-emergence herbicidal action against VERPE; conditions: 80 g/ha
Method in brief: as §2

Abutilon theophrasti [7] = experiment: Pre-emergence herbicidal action against ABUTH; conditions: visual score after 3 weeks vs untreated controls
Method in brief: as §2

Veronica persica [8] = experiment: Post-emergence herbicidal action against VERPE; conditions: 20 g/ha, visual assessment about 3 weeks after treatment
Method in brief: as §1

Avena fatua = experiment: Pre-emergence herbicidal action against AVEFA; conditions: 80 g/ha; visual score after 3 weeks vs untreated controls
Method in brief: as §2

Setaria viridis [9] = experiment: Post-emergence herbicidal action against SETVI; conditions: visual assessment about 3 weeks after treatment
Method in brief: as §1

Matricaria inodora [10] = experiment: Post-emergence herbicidal action against MATIN; conditions: 20 g/ha, visual assessment about 3 weeks after treatment
Method in brief: as §1

Amaranthus retroflexus [11] = experiment: Pre-emergence herbicidal action against AMARE; conditions: visual score after 3 weeks vs untreated controls
Method in brief: as §2

Echinochloa crus-galli [12] = experiment: Pre-emergence herbicidal action against ECHCG; conditions: 80 g/ha; visual score after 3 weeks vs untreated controls
Method in brief: as §2

Pharbitis purpurea [13] = experiment: Post-emergence herbicidal action against PHBPU; conditions: 20 g/ha, visual assessment about 3 weeks after treatment
Method in brief: as §1

Amaranthus retroflexus [14] = experiment: Post-emergence herbicidal action against AMARE; conditions: visual assessment about 3 weeks after treatment
Method in brief: as §1

Abutilon theophrasti [15] = experiment: Post-emergence herbicidal action against ABUTH
Method in brief: as §1

Matricaria inodora [16] = experiment: Pre-emergence herbicidal action against MATIN; conditions: visual score after 3 weeks vs untreated controls
Method in brief: as §2

Alopecurus myosuroides [17] = experiment: Post-emergence herbicidal action against ALOMY; conditions: 20 g/ha
Method in brief: as §1

Echinochloa crus-galli [18] = experiment: Post-emergence herbicidal action against ECHCG; conditions: 20 g/ha, visual assessment about 3 weeks after treatment
Method in brief: as §1

Row | SMILES | Post-emergence action against VIOTR in % (Viola tricolor [1]; 20 g/ha) [%] | Pre-emergence action against PHBPU (Pharbitis purpurea [2]) [%] | Pre-emergence action against VIOTR (Viola tricolor [3]; 80 g/ha) [%] | Pre-emergence action against SETVI (Setaria viridis [4]) [%] | Pre-emergence action against ALOMY (Alopecurus myosuroides [5]; 80 g/ha) [%] | Pre-emergence action against VERPE (Veronica persica [6]) [%] | Pre-emergence action against ABUTH (Abutilon theophrasti [7]; 20 g/ha) [%] | Pre-emergence action against ABUTH (Abutilon theophrasti [7]; 80 g/ha) [%] | Post-emergence action against VERPE in % (Veronica persica [8]) [%] | Post-emergence action against SETVI in % (Setaria viridis [9]; 5 g/ha) [%] | Post-emergence action against SETVI in % (Setaria viridis [9]; 20 g/ha) [%] | Pre-emergence action against AMARE (Amaranthus retroflexus [11]; 20 g/ha) [%] | Pre-emergence action against AMARE (Amaranthus retroflexus [11]; 80 g/ha) [%] | Post-emergence action against PHBPU in % (Pharbitis purpurea [13]) [%] | Post-emergence action against AMARE in % (Amaranthus retroflexus [14]; 5 g/ha) [%] | Post-emergence action against AMARE in % (Amaranthus retroflexus [14]; 20 g/ha) [%] | Post-emergence action against ABUTH (Abutilon theophrasti [15]; 5 g/ha) [%] | Post-emergence action against ABUTH (Abutilon theophrasti [15]; 20 g/ha) | Pre-emergence action against MATIN (Matricaria inodora [16]; 80 g/ha) [%] | other results
1 | CCN(CC)C(=O)c1c(Br)ccc(C(=O)Nc2nnnn2CC)c1Cl [Example 2-200] | 100 | 90 | 100 | 100 | 100 | 90 | 100 | 100 | 90 | 100 | 100 | 100 | 100 | 80 | 100 | 100 | 80 | 100;; % | 100 | Pre-emergence action against VIOTR (Viola tricolor [3]; 20 g/ha): 80%; Pre-emergence action against ALOMY (Alopecurus myosuroides [5]; 20 g/ha): 90%; Pre-emergence action against AVEFA (Avena fatua): 90%; Post-emergence action against MATIN in % (Matricaria inodora [10]): 80;; %; Pre-emergence action against ECHCG (Echinochloa crus-galli [12]): 90%; Pre-emergence action against MATIN (Matricaria inodora [16]; 20 g/ha): 90%; Post-emergence action against ALOMY (Alopecurus myosuroides [17]): 100%
2 | CCN(CC)C(=O)c1c(Br)ccc(C(=O)Nc2nnnn2C)c1Cl [Example 1-200] | 80 | 80 | 100 | 100 | 100 | 100 | 90 | 100 | 90 | 80 | 90 | 90 | 100 | 90 | 100 | 100 | 80 | 90% | 100 | Post-emergence action against VIOTR in % (Viola tricolor [1]; 5 g/ha): 80%; Post-emergence action against ECHCG in % (Echinochloa crus-galli [18]): 100%
